pEC50, pIC50: −log10 of the molar value.
Tests used:
p110δ/p85α = p110δ/p85α (Homo sapiens (Human), UniProt O00329); test: PI3K δ inhibition assay (TLC lipid kinase or HTRF); assay type: biochemical
In short: (§1)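 IC50 from TLC lipid kinase assay (25 mM HEPES pH 7.4, 10 mM MgCl2, 100 μg/ml phosphatidylinositol, 10 or 100 μM γ-32P-ATP, 5 min RT, phosphorimager) at 10–12 two-fold dilutions, or HTRF (10 μM PIP2, 10 μM ATP, 1 h RT) measuring PIP3 by TR-FRET; 2% DMSO final.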

p110γ = p110γ (Homo sapiens (Human), UniProt P48736); test: PI3K γ inhibition assay (TLC lipid kinase or HTRF); assay type: biochemical
In short: as §1

p110α/p85α = p110α/p85α (Homo sapiens (Human), UniProt P42336); test: PI3K α inhibition assay (TLC lipid kinase or HTRF); assay type: biochemical
In short: as §1

p110β/p85α = p110β/p85α (Homo sapiens, UniProt P42338); test: PI3K β inhibition assay (TLC lipid kinase or HTRF); assay type: biochemical; settings: read-out: PI3K β IC50
In short: as §1

Balb/c splenic B cells = test: B cell activation and proliferation assay (Alamar Blue); assay type: cell-based, mouse; settings: Mus musculus, B-cell
Protocol: The ability of one or more subject compounds to inhibit B cell activation and proliferation is determined according to standard procedures known in the art. For example, an in vitro cellular proliferation assay is established that measures the metabolic activity of live cells. The assay is performed in a 96 well microtiter plate using Alamar Blue reduction. Balb/c splenic B cells are purified over a Ficoll-Paque™ PLUS gradient followed by magnetic cell separation using a MACS B cell Isolation Kit (Miletenyi). Cells are plated in 90 ul at 50,000 cells/well in B Cell Media (RPMI+10% FBS+Penn/Strep+50 uM bME+5 mM HEPES). A compound disclosed herein is diluted in B Cell Media and added in a 10 ul volume. Plates are incubated for 30 min at 37 C and 5% CO2 (0.2% DMSO final concentration). A 50 ul B cell stimulation cocktail is then added containing either 10 ug/ml LPS or 5 ug/ml F(ab′)2 Donkey anti-mouse IgM plus 2 ng/ml recombinant mouse IL4 in B Cell Media. Plates are incubated for 72 hours at 37° C. and 5% CO2. A volume of 15 uL of Alamar Blue reagent is added to each well and plates are incubated for 5 hours at 37 C and 5% CO2. Alamar Blue fluoresce is read at 560Ex/590Em, and IC50 or EC50 values are calculated using GraphPad Prism 5.

Chain of p110γ (P48736 whole entry): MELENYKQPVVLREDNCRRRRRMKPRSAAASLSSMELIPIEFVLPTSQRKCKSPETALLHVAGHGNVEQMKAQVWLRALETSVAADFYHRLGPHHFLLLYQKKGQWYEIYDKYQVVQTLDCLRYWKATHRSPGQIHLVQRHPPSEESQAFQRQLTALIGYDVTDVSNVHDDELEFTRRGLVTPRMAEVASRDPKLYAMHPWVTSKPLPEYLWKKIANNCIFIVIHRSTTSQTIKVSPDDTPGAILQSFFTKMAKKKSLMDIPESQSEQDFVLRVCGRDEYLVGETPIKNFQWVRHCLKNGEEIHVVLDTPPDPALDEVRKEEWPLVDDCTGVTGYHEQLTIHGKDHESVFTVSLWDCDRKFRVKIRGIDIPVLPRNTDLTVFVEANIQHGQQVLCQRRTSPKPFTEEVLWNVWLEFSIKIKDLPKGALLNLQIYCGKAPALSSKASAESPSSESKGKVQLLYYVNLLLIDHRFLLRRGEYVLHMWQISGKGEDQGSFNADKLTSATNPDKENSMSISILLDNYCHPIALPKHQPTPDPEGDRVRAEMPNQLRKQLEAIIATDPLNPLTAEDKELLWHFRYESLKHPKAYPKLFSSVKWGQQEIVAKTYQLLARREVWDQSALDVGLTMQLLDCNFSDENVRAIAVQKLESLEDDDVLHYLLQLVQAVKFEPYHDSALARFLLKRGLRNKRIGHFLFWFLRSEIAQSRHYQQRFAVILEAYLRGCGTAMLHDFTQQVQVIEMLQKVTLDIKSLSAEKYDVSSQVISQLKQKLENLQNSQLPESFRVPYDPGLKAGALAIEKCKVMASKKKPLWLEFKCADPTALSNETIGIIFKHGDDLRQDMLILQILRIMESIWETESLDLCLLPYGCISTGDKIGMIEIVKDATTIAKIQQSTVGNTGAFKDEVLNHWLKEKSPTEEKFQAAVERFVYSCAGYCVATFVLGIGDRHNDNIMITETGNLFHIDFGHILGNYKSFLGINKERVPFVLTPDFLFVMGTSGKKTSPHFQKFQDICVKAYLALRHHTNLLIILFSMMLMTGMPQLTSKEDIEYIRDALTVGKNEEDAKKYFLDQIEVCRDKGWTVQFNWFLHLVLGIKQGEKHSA
Chain of p110α/p85α (P42336 whole entry): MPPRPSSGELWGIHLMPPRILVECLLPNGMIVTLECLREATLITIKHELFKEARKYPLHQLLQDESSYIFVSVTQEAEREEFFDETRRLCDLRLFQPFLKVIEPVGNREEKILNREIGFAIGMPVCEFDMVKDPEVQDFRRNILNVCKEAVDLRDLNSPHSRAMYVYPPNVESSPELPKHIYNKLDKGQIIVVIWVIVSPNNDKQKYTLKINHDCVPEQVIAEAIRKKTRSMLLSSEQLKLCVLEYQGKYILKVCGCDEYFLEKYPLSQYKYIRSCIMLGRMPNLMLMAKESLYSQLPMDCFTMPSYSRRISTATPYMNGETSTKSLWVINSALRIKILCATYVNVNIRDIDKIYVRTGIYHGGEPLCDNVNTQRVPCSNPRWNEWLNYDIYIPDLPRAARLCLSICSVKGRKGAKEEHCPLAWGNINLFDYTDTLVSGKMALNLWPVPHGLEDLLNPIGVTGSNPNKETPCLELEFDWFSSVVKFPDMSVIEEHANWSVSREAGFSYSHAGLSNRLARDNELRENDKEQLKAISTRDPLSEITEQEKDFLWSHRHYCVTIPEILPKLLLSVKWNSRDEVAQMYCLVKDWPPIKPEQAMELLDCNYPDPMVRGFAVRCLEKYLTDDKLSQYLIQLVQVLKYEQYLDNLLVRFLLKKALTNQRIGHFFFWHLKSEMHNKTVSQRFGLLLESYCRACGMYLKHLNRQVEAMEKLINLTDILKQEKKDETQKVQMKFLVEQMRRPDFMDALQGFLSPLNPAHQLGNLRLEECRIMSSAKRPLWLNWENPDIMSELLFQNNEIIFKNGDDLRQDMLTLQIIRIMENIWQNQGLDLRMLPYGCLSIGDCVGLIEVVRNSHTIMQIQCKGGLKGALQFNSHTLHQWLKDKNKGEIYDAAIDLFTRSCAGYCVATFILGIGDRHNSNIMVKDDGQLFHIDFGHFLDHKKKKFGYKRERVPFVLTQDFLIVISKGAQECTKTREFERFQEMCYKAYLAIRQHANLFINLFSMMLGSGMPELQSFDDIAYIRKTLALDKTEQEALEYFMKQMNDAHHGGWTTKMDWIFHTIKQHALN
Chain of p110α/p85α (P27986 whole entry partner): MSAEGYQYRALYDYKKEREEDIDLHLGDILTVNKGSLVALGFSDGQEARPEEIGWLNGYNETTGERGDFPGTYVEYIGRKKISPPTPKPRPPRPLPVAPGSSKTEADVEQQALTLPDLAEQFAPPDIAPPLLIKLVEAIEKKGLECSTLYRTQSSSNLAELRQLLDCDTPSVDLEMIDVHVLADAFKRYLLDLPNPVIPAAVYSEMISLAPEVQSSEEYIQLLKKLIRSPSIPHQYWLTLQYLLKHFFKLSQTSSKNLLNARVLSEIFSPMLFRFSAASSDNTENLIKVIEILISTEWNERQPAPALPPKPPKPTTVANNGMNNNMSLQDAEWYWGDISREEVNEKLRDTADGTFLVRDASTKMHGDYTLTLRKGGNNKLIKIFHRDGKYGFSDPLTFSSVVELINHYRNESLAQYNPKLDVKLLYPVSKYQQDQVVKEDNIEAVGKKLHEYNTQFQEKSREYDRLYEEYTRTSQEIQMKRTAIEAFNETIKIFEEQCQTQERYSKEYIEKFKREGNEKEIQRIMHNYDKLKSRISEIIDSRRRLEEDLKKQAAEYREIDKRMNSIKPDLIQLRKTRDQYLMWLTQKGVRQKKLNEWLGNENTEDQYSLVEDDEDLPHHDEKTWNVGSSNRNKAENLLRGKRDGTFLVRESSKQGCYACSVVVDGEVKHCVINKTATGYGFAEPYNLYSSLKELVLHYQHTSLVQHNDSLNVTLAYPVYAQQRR
Chain of p110β/p85α (P42338 whole entry, looked up): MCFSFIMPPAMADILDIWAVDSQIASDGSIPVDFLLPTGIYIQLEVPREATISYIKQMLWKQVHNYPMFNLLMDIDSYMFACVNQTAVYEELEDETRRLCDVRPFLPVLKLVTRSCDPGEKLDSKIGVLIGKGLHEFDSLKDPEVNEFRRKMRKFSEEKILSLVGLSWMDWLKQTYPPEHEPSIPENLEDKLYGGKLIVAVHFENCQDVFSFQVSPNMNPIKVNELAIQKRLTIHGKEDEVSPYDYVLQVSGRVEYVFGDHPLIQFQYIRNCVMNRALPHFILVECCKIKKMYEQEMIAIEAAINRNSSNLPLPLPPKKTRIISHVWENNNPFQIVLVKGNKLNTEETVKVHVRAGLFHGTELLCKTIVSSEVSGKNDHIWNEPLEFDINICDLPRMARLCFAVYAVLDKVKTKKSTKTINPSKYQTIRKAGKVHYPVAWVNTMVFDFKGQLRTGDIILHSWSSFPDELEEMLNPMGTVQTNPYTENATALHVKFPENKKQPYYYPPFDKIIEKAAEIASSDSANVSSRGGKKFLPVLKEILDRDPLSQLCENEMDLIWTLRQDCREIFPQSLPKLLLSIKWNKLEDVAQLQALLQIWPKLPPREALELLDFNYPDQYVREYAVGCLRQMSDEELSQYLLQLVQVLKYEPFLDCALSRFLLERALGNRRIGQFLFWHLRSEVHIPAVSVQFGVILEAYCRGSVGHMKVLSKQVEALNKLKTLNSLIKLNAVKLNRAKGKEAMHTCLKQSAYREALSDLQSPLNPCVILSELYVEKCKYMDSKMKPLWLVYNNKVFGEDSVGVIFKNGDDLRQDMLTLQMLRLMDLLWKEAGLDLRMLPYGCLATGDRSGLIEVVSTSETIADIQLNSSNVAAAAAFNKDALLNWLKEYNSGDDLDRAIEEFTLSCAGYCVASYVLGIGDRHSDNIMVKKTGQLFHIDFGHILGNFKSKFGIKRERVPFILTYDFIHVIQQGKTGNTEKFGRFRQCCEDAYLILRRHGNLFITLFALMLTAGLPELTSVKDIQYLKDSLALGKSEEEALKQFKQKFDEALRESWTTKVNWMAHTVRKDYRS
Chain of p110δ/p85α (O00329 whole entry): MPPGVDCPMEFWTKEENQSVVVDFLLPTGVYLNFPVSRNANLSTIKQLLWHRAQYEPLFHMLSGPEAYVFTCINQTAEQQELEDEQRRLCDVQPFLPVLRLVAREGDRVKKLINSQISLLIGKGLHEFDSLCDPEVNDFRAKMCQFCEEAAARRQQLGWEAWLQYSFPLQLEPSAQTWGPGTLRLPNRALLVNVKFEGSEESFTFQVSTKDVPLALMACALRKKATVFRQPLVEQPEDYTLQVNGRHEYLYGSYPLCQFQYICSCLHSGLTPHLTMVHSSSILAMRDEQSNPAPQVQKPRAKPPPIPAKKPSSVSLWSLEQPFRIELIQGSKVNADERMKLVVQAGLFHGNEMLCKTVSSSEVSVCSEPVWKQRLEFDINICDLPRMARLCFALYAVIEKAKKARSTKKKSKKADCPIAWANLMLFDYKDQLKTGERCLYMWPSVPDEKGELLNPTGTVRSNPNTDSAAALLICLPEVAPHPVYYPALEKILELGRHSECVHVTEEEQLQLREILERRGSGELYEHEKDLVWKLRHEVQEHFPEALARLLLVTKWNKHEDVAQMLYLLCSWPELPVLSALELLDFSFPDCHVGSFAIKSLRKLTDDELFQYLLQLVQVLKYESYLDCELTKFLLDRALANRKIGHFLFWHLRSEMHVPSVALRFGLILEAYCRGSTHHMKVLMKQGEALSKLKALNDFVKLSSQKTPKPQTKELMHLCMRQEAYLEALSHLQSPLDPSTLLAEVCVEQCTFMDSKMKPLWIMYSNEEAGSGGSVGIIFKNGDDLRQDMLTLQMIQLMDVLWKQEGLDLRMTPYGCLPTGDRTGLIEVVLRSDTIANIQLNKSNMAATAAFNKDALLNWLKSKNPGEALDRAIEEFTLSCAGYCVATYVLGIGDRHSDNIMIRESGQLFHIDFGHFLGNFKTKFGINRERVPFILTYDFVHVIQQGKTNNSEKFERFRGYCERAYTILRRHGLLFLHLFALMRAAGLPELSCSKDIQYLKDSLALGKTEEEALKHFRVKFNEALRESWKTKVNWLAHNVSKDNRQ
Chain of p110δ/p85α (P27986 whole entry partner): as the sequence (P27986 whole entry partner) above

Row | pIC50 (p110δ/p85α) | pIC50 (p110γ) | pIC50 (p110α/p85α) | pIC50 (p110β/p85α) | Compound | pEC50 (Balb/c splenic B cells)
1 | > 7.00 | > 7.00 | < 6.00 | < 6.00 | Nc1nc2ccc(-c3nn(Cc4cc5ccccc5nc4-c4ccccc4)c4ncnc(N)c34)cc2s1 [Compound 94] | 6.00 to 7.00
2 | > 7.00 | > 7.00 | < 6.00 | < 6.00 | Cc1ccccc1-c1nc2ccccc2cc1Cn1nc(-c2ccc3cc(N)sc3c2)c2c(N)ncnc21 [Compound 86] | 6.00 to 7.00
3 | > 7.00 | > 7.00 | < 6.00 | < 6.00 | Nc1ncnc2ccc(-c3nn(Cc4cc5ccccc5nc4-c4ccccc4F)c4ncnc(N)c34)cc12 [Compound 138] | 6.00 to 7.00
4 | > 7.00 | 6.00 to 7.00 | < 6.00 | < 6.00 | Cc1ccccc1-c1nc2ccccc2cc1Cn1nc(-c2cccc(O)c2)c2c(N)ncnc21 [Compound 5] | 6.00 to 7.00
5 | > 7.00 | < 6.00 | < 6.00 | > 7.00 | CC(c1cc2ccccc2nc1N1CCN(C)CC1)n1nc(-c2cc(O)cc(F)c2)c2c(N)ncnc21 (centres unmarked) [Compound 73] | > 7.00
6 | > 7.00 | > 7.00 | 6.00 to 7.00 | < 6.00 | Nc1ncnc2ccc(-c3nn(Cc4cc5ccccc5nc4N4CCOCC4)c4ncnc(N)c34)cc12 [Compound 142] | > 7.00
7 | > 7.00 | > 7.00 | < 6.00 | < 6.00 | Nc1ncnc2c1c(/C=C1/SC(=O)NC1=O)nn2Cc1cc2ccccc2nc1-c1ccccc1F [Compound 192] | 6.00 to 7.00
8 | > 7.00 | 6.00 to 7.00 | < 6.00 | < 6.00 | CC(c1cc2ccccc2nc1-c1ccccc1)n1nc(-c2cccc(O)c2)c2c(N)ncnc21 (centres unmarked) [Compound 59] | > 7.00
9 | > 7.00 | > 7.00 | 6.00 to 7.00 | > 7.00 | CN1CCN(c2nc3ccccc3nc2Cn2nc(-c3ccc4nc(N)sc4c3)c3c(N)ncnc32)CC1 [Compound 199] | > 7.00
10 | > 7.00 | 6.00 to 7.00 | < 6.00 | < 6.00 | Nc1ncnc2c1c(-c1cc(O)cc(F)c1)nn2Cc1nc2ccccc2nc1N1CCCC1 [Compound 104] | > 7.00
11 | > 7.00 | < 6.00 | < 6.00 | < 6.00 | Nc1ccnc2c1c(-c1cccc(O)c1)nn2Cc1cc2ccccc2nc1-c1cccnc1 [Compound 77] | > 7.00
12 | 6.00 to 7.00 | < 6.00 | < 6.00 | < 6.00 | CC(=O)Nc1nc2ccc(-c3nn(Cc4cc5ccccc5nc4OC(C)C)c4ncnc(N)c34)cc2s1 [Compound 157] | < 6.00
13 | > 7.00 | > 7.00 | < 6.00 | < 6.00 | CC(=O)Nc1nc2ccc(-c3nn(Cc4cc5ccccc5nc4-c4ccccc4)c4ncnc(N)c34)cc2s1 [Compound 92] | > 7.00
14 | > 7.00 | 6.00 to 7.00 | < 6.00 | < 6.00 | Nc1ncnc2c1c(-c1cccc(O)c1)nn2Cc1cc2ccccc2nc1N1CCOCC1 [Compound 64] | > 7.00
15 | > 7.00 | > 7.00 | < 6.00 | < 6.00 | Nc1nc2cc(-c3nn(Cc4cc5ccccc5nc4-c4ccccc4)c4ncnc(N)c34)ccc2o1 [Compound 145] | > 7.00
16 | > 7.00 | > 7.00 | > 7.00 | 6.00 to 7.00 | Cc1ccccc1-c1nc2ccccc2cc1Cn1nc(-c2ccc3nc(N)ncc3c2)c2c(N)ncnc21 [Compound 132] | > 7.00
17 | > 7.00 | < 6.00 | < 6.00 | < 6.00 | CCC(c1cc2ccccc2nc1N1CCCC1)n1nc(-c2cccc(O)c2)c2c(N)ncnc21 (centres unmarked) [Compound 39] | > 7.00
18 | > 7.00 | 6.00 to 7.00 | < 6.00 | < 6.00 | Cc1ccccc1-c1nc2ccccc2cc1Cn1nc(I)c2c(N)ncnc21 [Compound 3] | 6.00 to 7.00
19 | > 7.00 | < 6.00 | < 6.00 | < 6.00 | Nc1ncnc2c1c(-c1cc(O)cc(F)c1)nn2Cc1cc2ccccc2nc1NCCN1CCOCC1 [Compound 75] | > 7.00

Row | pIC50 (p110δ/p85α) | pIC50 (p110γ) | pIC50 (p110α/p85α) | pIC50 (p110β/p85α) | Compound | pEC50 (Balb/c splenic B cells)
20 | > 7.00 | 6.00 to 7.00 | < 6.00 | < 6.00 | CCC(c1cc2ccccc2nc1N1CCCC1)n1nc(-c2cc(O)cc(F)c2)c2c(N)ncnc21 (centres unmarked) [Compound 40] | > 7.00
21 | > 7.00 | > 7.00 | 6.00 to 7.00 | < 6.00 | CC(C)Oc1nc2ccccc2cc1Cn1nc(-c2ccc3nc(N)sc3c2)c2c(N)ncnc21 [Compound 159] | < 6.00
22 | > 7.00 | > 7.00 | < 6.00 | 6.00 to 7.00 | Nc1ncnc2c1c(-c1cc(O)cc(F)c1)nn2Cc1cc2ccccc2nc1N1CCCC1 [Compound 2] | > 7.00
23 | > 7.00 | > 7.00 | 6.00 to 7.00 | 6.00 to 7.00 | CC(C)c1ccccc1-c1nc2ccccc2cc1Cn1nc(-c2cc(O)cc(F)c2)c2c(N)ncnc21 [Compound 17] | > 7.00
24 | > 7.00 | > 7.00 | 6.00 to 7.00 | < 6.00 | Nc1ccc2cc(-c3nn(Cc4cc5ccccc5nc4-c4ccccc4)c4ncnc(N)c34)ccc2n1 [Compound 144] | > 7.00
25 | > 7.00 | > 7.00 | < 6.00 | < 6.00 | Nc1ncnc2c1c(I)nn2Cc1cc2ccccc2nc1N1CCCC1 [Compound 1] | 6.00 to 7.00
26 | > 7.00 | < 6.00 | < 6.00 | < 6.00 | CC(C)N1CCN(c2nc3ccccc3cc2Cn2nc(-c3cc(O)cc(F)c3)c3c(N)ncnc32)CC1 [Compound 69] | > 7.00
27 | > 7.00 | 6.00 to 7.00 | 6.00 to 7.00 | 6.00 to 7.00 | CC(=O)Nc1nc2ccc(-c3nn(Cc4cc5ccccc5nc4CCN4CCN(C)CC4)c4ncnc(N)c34)cc2s1 [Compound 169] | > 7.00
28 | > 7.00 | > 7.00 | > 7.00 | 6.00 to 7.00 | Nc1nc2cc(-c3nn(Cc4cc5ccccc5nc4N4CCCC4)c4ncnc(N)c34)ccc2[nH]1 [Compound 153] | 6.00 to 7.00
29 | > 7.00 | < 6.00 | < 6.00 | 6.00 to 7.00 | CN1CCN(CCc2nc3ccccc3cc2Cn2nc(-c3cc(O)cc(F)c3)c3c(N)ncnc32)CC1 [Compound 168] | > 7.00
30 | > 7.00 | < 6.00 | < 6.00 | 6.00 to 7.00 | CC(c1cc2ccccc2nc1N1CCN(C)CC1)n1nc(-c2cccc(O)c2)c2c(N)ncnc21 (centres unmarked) [Compound 72] | > 7.00
31 | > 7.00 | > 7.00 | < 6.00 | < 6.00 | Cc1ccccc1-c1nc2c(C)cccc2cc1Cn1nc(I)c2c(N)ncnc21 [Compound 7] | 6.00 to 7.00
32 | > 7.00 | > 7.00 | < 6.00 | < 6.00 | Nc1ccc2cc(-c3nn(Cc4cc5ccccc5nc4-c4ccccc4F)c4ncnc(N)c34)ccc2n1 [Compound 136] | 6.00 to 7.00
33 | > 7.00 | < 6.00 | < 6.00 | > 7.00 | CCN1CCN(c2nc3ccccc3cc2Cn2nc(-c3cc(O)cc(F)c3)c3c(N)ncnc32)CC1 [Compound 38] | > 7.00
34 | > 7.00 | 6.00 to 7.00 | < 6.00 | < 6.00 | Nc1ncnc2c1c(-c1cn[nH]c1)nn2Cc1cc2ccccc2nc1-c1ccccc1 [Compound 180] | 6.00 to 7.00
35 | > 7.00 | < 6.00 | < 6.00 | 6.00 to 7.00 | CN1CCN(c2nc3ccccc3cc2Cn2nc(-c3cccc(O)c3)c3c(N)ncnc32)CC1 [Compound 43] | 6.00 to 7.00
36 | > 7.00 | < 6.00 | < 6.00 | < 6.00 | Cc1cccc2cc(Cn3nc(I)c4c(N)ncnc43)c(N3CCCC3)nc12 [Compound 6] | 6.00 to 7.00
37 | > 7.00 | > 7.00 | 6.00 to 7.00 | < 6.00 | Nc1nc2ccc(-c3nn(Cc4cc5ccccc5nc4-c4ccccc4F)c4ncnc(N)c34)cc2s1 [Compound 85] | > 7.00

Source: patent US9790228B2, “Heterocyclic kinase inhibitors” (Intellikine LLC, priority 2008, dated 2017)
